The term pEC50 denotes the negative decadic logarithm of the EC50, by convention in mol/L. Broadly, the pIC50 is −log10 of the IC50, conventionally taken in molar units. Broadly, the CC50 is the concentration that lowers cell viability or growth by half.

Experimental findings from ChEMBL document CHEMBL4152314, “Symmetrical and unsymmetrical substituted 2,5-diarylidene cyclohexanones as anti-parasitic compounds” (Eur J Med Chem, 2018) are described below.

The nature of data set [1]: Selectivity index, ratio of CC50 for African green monkey Vero cells to EC50 for trypomastigote form of Trypanosoma cruzi. The conditions noted are these: read-out: Ratio CC50/EC50. The format is toxicity.
The subject of data set [2] is Trypanosoma cruzi. Kind of data set: Antiparasitic activity against trypomastigote form of Trypanosoma cruzi assessed as parasite lysis after 24 hrs by Pizzi-Brener method. The format is functional, organism-based.
The subject of a further data set is Leishmania amazonensis. Kind of data set: Antiparasitic activity against promastigote form of Leishmania amazonensis MHOM/BR/Josefa assessed as parasite growth inhibition after 72 hrs by Neubauer hemocytometer. The format is functional, organism-based.
Data set [3] can be described thus: Cytotoxicity against African green monkey Vero cells assessed as growth inhibition. The format is cell-based. The conditions noted are these: chlorocebus sabaeus.
Data set [4] relates to Trypanosoma cruzi. Kind of data set: Antiparasitic activity against epimastigote form of Trypanosoma cruzi Y assessed as parasite growth inhibition after 96 hrs by Neubauer hemocytometer. In kind it is functional, organism-based.
A short description of data set [5]: Selectivity index, ratio of CC50 for African green monkey Vero cells to IC50 for promastigote form of Leishmania amazonensis MHOM/BR/Josefa. The format is toxicity. Conditions: read-out: Ratio CC50/IC50.
A short description of data set [6]: Selectivity index, ratio of CC50 for African green monkey Vero cells to IC50 for epimastigote form of Trypanosoma cruzi Y. The format is toxicity. The conditions noted are these: read-out: Ratio CC50/IC50.

SMILES strings stand for the structures. pEC50, pIC50: −log10 of the molar value.

For `O=C1/C(=C/c2ccc3c(c2)OCO3)CCC/C1=C\c1ccc2c(c1)OCO2`, the selectivity ratio in data set [1] was determined as 3.3; in data set [5], 11.7. The pEC50 in the data set on Trypanosoma cruzi [2] is 4.11. The pIC50 in the data set on Leishmania amazonensis was 4.66; in the data set with Trypanosoma cruzi [4], less than 4.00. For the same compound, the CC50 in data set [3] came out at 257 µM.

As to `COc1ccc(/C=C2\CCC/C(=C\c3ccc([N+](=O)[O-])cc3)C2=O)cc1`, the pEC50 with Trypanosoma cruzi [2] was less than 4.00. For the same compound, the pIC50 with Leishmania amazonensis and with Trypanosoma cruzi [4] was less than 4.00 throughout. In addition, the CC50 in data set [3] amounted to 435 µM.

Consider `COc1ccc(/C=C2\CCCCC2=O)cc1`, for which the results for the selectivity ratio in data set [6] and in data set [5] were 3.5 and 3.6, respectively. The pEC50 in the data set on Trypanosoma cruzi [2] is less than 4.00. Moreover, the pIC50 was 4.27 in the data set with Leishmania amazonensis and 4.26 in the data set with Trypanosoma cruzi [4]. For the same compound, the CC50 in data set [3] was found to be 194 µM.

As for `COc1cccc(/C=C2\CCC/C(=C\c3ccc([N+](=O)[O-])cc3)C2=O)c1OC`, the pEC50 in the data set on Trypanosoma cruzi [2] is 4.56. The pIC50 in the data set with Leishmania amazonensis is 5.41; in the data set with Trypanosoma cruzi [4] it was 4.48. The CC50 in data set [3] was less than 10 µM.

Regarding `COc1cccc(/C=C2\CCC/C(=C\c3cccc(Br)c3)C2=O)c1OC`, the selectivity ratio in data set [6] was 1; in data set [1] it was 0.4; in data set [5] it was 1.6. In the data set on Trypanosoma cruzi [2], the pEC50 was 4.14. The figures for the pIC50 with Leishmania amazonensis and in the data set on Trypanosoma cruzi [4] were 4.70 and 4.48, respectively. In addition, the CC50 in data set [3] is 31.5 µM.

Regarding `COc1cccc(/C=C2\CCC/C(=C\C(C)Cc3ccc4c(c3)OCO4)C2=O)c1OC` (centres undefined), the selectivity ratio in data set [6] is 6.8; in data set [1] it was 2.2; in data set [5], 17.8. For the same compound, in the data set on Trypanosoma cruzi [2], the pEC50 was 4.09. Also, the pIC50 was 5.00 with Leishmania amazonensis and 4.58 with Trypanosoma cruzi [4]. For the same compound, in data set [3], the CC50 was 178 µM.

With `COc1cccc(/C=C2\CCCCC2=O)c1OC`, the pEC50 with Trypanosoma cruzi [2] is less than 4.00. The pIC50 in the data set on Leishmania amazonensis and in the data set on Trypanosoma cruzi [4] was less than 4.00 in each case. In data set [3], the CC50 was 720 µM.

As to `COc1ccc(/C=C2\CCC/C(=C\c3ccccc3)C2=O)cc1`, the selectivity ratio came to 14.1 in data set [6] and 24.6 in data set [5]. For the same compound, in the data set on Trypanosoma cruzi [2], the pEC50 was less than 4.00. For the same compound, the pIC50 with Leishmania amazonensis is 4.93; in the data set on Trypanosoma cruzi [4] it was 4.69. Also, the CC50 in data set [3] was determined as 291 µM.

For `COc1ccc(/C=C2\CCC/C(=C\c3ccc(F)cc3)C2=O)cc1`, the figures for the selectivity ratio in data set [6] and in data set [5] were 18 and 35, respectively. Also, in the data set with Trypanosoma cruzi [2], the pEC50 was less than 4.00. For the same compound, the pIC50 is 4.97 in the data set on Leishmania amazonensis and 4.68 with Trypanosoma cruzi [4]. Also, the CC50 in data set [3] was 378 µM.

With `COc1cccc(/C=C2\CCC/C(=C\c3cc(OC)c(OC)c(OC)c3)C2=O)c1OC`, the selectivity ratio in data set [6] worked out at 9.8; in data set [1] it was 1; in data set [5], 11.3. Also, the pEC50 in the data set with Trypanosoma cruzi [2] was 4.52. Besides, the pIC50 in the data set on Leishmania amazonensis was 5.59; with Trypanosoma cruzi [4] it was 5.52. Moreover, in data set [3], the cytotoxic concentration (CC50) was 29.3 µM.

As to `COc1ccc(/C=C2\CCC/C(=C\c3ccc(Br)cc3)C2=O)cc1`, the selectivity ratio was determined as 4.5 in data set [6] and 14.5 in data set [5]. Also, the pEC50 with Trypanosoma cruzi [2] is less than 4.00. For the same compound, the values for the pIC50 in the data set with Leishmania amazonensis and in the data set with Trypanosoma cruzi [4] were 4.76 and 4.26, respectively. Besides, the CC50 in data set [3] amounted to 250 µM.

Consider `COc1ccc(/C=C2\CCC/C(=C\c3ccc(Cl)cc3)C2=O)cc1`, for which the results for the selectivity ratio in data set [6] and in data set [5] were 18.6 and 22.5, respectively. Besides, the pEC50 in the data set with Trypanosoma cruzi [2] is less than 4.00. Further, the pIC50 with Leishmania amazonensis was 4.75; with Trypanosoma cruzi [4] it was 4.67. In addition, the CC50 in data set [3] is 401 µM.

As to `COc1ccc(/C=C2\CCC/C(=C\c3cccc(OC)c3OC)C2=O)cc1OC`, the selectivity ratio in data set [6] turned out to be 1.3; in data set [1], 1.5; in data set [5], 8. The pEC50 in the data set with Trypanosoma cruzi [2] is 4.62. The pIC50 in the data set with Leishmania amazonensis was 5.35; with Trypanosoma cruzi [4] it was 4.55. In data set [3], the CC50 was 36.1 µM.

In the case of `COc1cccc(/C=C2\CCC/C(=C\c3ccc(F)cc3)C2=O)c1OC`, the selectivity ratio came out at 1.4 in data set [6], 0.5 in data set [1] and 7.1 in data set [5]. The pEC50 in the data set on Trypanosoma cruzi [2] is 4.15. Moreover, the pIC50 was 5.33 in the data set with Leishmania amazonensis and 4.61 with Trypanosoma cruzi [4]. Besides, the CC50 in data set [3] stood at 33.2 µM.

As for `COc1ccc(/C=C2\CCC/C(=C\c3ccc(N(C)C)cc3)C2=O)cc1`, the pEC50 with Trypanosoma cruzi [2] is less than 4.00. Besides, the negative-log IC50 (pIC50) with Leishmania amazonensis was 4.04; in the data set on Trypanosoma cruzi [4], less than 4.00. Moreover, the CC50 in data set [3] was found to be 392 µM. In addition, in data set [5], the selectivity ratio came to 4.3.

Take `COc1cccc(/C=C2\CCC/C(=C\c3ccc(Br)cc3)C2=O)c1OC`: the selectivity ratio in data set [6] is 0.9; in data set [1], 0.4; in data set [5], 1.6. The pEC50 in the data set with Trypanosoma cruzi [2] is 4.11. In addition, the pIC50 was 4.70 in the data set on Leishmania amazonensis and 4.46 in the data set on Trypanosoma cruzi [4]. In addition, the CC50 in data set [3] was found to be 31.5 µM.

`COc1cc([N+](=O)[O-])ccc1/C=C1\CCC/C(=C\c2cccc(OC)c2OC)C1=O`: the selectivity ratio in data set [6] was 4.5; in data set [5] it was 25. The pEC50 in the data set on Trypanosoma cruzi [2] was less than 4.00. The values for the pIC50 in the data set with Leishmania amazonensis and in the data set with Trypanosoma cruzi [4] were 5.32 and 4.58, respectively. For the same compound, in data set [3], the CC50 came to 120 µM.

In the case of `COc1ccc(/C=C2\CCC/C(=C\c3ccccc3Cl)C2=O)cc1`, the selectivity ratio in data set [6] came to 8.9; in data set [5] it was 18.3. The pEC50 in the data set on Trypanosoma cruzi [2] was less than 4.00. In addition, the pIC50 in the data set on Leishmania amazonensis is 4.89; with Trypanosoma cruzi [4], 4.58. In data set [3], the CC50 was 238 µM.

In the case of `COc1ccc(/C=C2\CCC/C(=C\c3cccc(Br)c3)C2=O)cc1`, the selectivity ratio in data set [6] turned out to be 1.5; in data set [5] it was 5.3. The pEC50 in the data set on Trypanosoma cruzi [2] was less than 4.00. Also, the pIC50 was 5.24 in the data set on Leishmania amazonensis and 4.69 with Trypanosoma cruzi [4]. Further, in data set [3], the CC50 amounted to 30 µM.

In the case of `COc1ccc(/C=C2\CCC/C(=C\c3ccccc3F)C2=O)cc1`, the selectivity ratio in data set [6] came out at 19.8; in data set [5], 29.9. In addition, the pEC50 in the data set with Trypanosoma cruzi [2] was less than 4.00. Further, the pIC50 with Leishmania amazonensis is 5.05; in the data set on Trypanosoma cruzi [4], 4.87. Also, the CC50 in data set [3] turned out to be 270 µM.

As for `COc1cccc(/C=C2\CCC/C(=C\c3c(Cl)cccc3Cl)C2=O)c1OC`, the selectivity ratio in data set [6] was 6.1; in data set [1], 4.6; in data set [5] it was 43.3. Further, the pEC50 with Trypanosoma cruzi [2] was 4.46. Besides, the pIC50 with Leishmania amazonensis was 5.43; in the data set with Trypanosoma cruzi [4], 4.58. In addition, in data set [3], the CC50 was determined as 160 µM.

For the compound `COc1ccc(/C=C2\CCC/C(=C\c3ccc(OC)cc3)C2=O)cc1`, the selectivity ratio in data set [6] amounted to 2.8; in data set [5], 5.3. For the same compound, the pEC50 in the data set with Trypanosoma cruzi [2] is less than 4.00. For the same compound, the pIC50 in the data set on Leishmania amazonensis is 4.48; in the data set with Trypanosoma cruzi [4], 4.20. Further, in data set [3], the CC50 was 178 µM.

As for `O=C(Cn1ccnc1[N+](=O)[O-])NCc1ccccc1` [BENZNIDAZOLE], the negative-log IC50 (pIC50) with Trypanosoma cruzi [4] is 5.19.

Take `COc1cc(/C=C/C(=O)CC(=O)/C=C/c2ccc(O)c(OC)c2)ccc1O` [CURCUMIN]: the selectivity ratio turned out to be 0.5 in data set [6] and 2.5 in data set [1]. In the data set on Trypanosoma cruzi [2], the pEC50 is 4.82. For the same compound, the pIC50 was less than 4.00 in the data set with Leishmania amazonensis and 4.17 in the data set with Trypanosoma cruzi [4]. The CC50 in data set [3] worked out at 36.8 µM.
